Results as given in US8957098B2 (ALGIAX Pharmaceuticals GmbH, priority 2010, dated 2015).

Columns and labels:
[1] = system: severe spinal cord contusion injury in the rat; assay: BBB open field locomotor rating scale after severe spinal cord contusion injury; format: in vivo; settings: Example 2; 20 mg/kg/day by gavage for 7 days; effect distinct from DPO 7 to DPO 63 (ANOVA-RM p=0.002); vehicle 8.3
Description: The BBB score is scaled from 0 to 21 points, a BBB score of 0 represents a complete paralysis of the hind limbs and a BBB score of 21 represents normal locomotion. […]
The BBB locomotor rating scale was used according to the present disclosure to assess general locomotor performance. The score was assessed before injury and at 1, 3, 5, 7, 14, 21, 35, 42, 49, 56 and 63 days post operation (dpo) by 2 blinded observers.

[2] = system: severe spinal cord contusion injury in the rat; assay: Explorative rearing test after severe spinal cord contusion injury; format: in vivo; settings: Example 1; 20 mg/kg/day by gavage for 7 days
Description: Thirteen week-old female Lewis rats (Charles River, Sulzfeld Germany) were housed under a 12:12 h dark/light regime and allowed free access to water and food. After one week of habituation the animals underwent general anesthesia with a mixture of isoflurane and air (induction: 5% isoflurane, maintenance: 2.2% isofluorane). A Th10 laminectomy was performed without rupturing the dura and a severe contusive SCI (25 gem NYU/MASCIS II impactor) {Gruner, 1992 #3} was induced. After suturing muscle and skin, a subcutaneous (s.c.) injection of 5 ml of Ringers Lactate was given. Bladders were emptied manually 2 times a day until spontaneous voiding returned (usually within 1 week). The lesion severity was verified by the impact velocity and contusion depth of the impactor rod. Animals with an impact velocity error >5% were excluded from further analysis. After injury, individual rats were randomly assigned into a treatment group. The following groups were used:
When placed in a Plexiglas cylinder (18 cm diameter×35.0 cm height), animals spontaneously rear and contact the walls with their forepaws. Numbers, duration and types of rears were analyzed during the 3-min recorded observation period in the cylinder (Himes et al., 2006; Shumsky et al., 2003). A mirror was placed at an angle behind the cylinder so that the forelimbs could be viewed at all times. The testing session was videotaped, and rearing behaviour was scored blindly at a later date.
Different types of rears of increasing heights were observed: • LEVEL 1: Crouch—Animals lifted both forepaws off the ground up to 10 cm; • LEVEL 2: Rear—Animals reared and extended the trunk with the hindlimbs flexed reaching a height between 10 and 15 cm; • LEVEL 3: Stand—Animals reared and extended the trunk with the hindlimbs extended reaching a height over 15 cm.
Occasionally an animal progressed through several types of rears before touching down, in which case the time the animal spend in each rearing height was measured by counting the single video frames. […]

Q: `Cc1cc(NC(=O)/C(C#N)=C(\O)C2CC2)ccc1C(F)(F)F` [HR325, 1(3-methyl-4-trifluoromethylphenyl-carbamoyl)-2-cyclopropyl-2oxo-propionitrile] was tested. Which “BBB score at steady state” value [1] did it give?
A: around 10

Q: For `Cc1oncc1C(=O)Nc1ccc(C(F)(F)F)cc1` [Leflunomide, N-(4-trifluoromethylphenyl)-5-methylisoxazol-4-carboxamide], which “exploring time of healthy control animals at LEVEL 3 (>15 cm) compared with treated animals” value [2] is on record?
A: significantly longer

Q: What about the “rearing attempts (time and height reached by forepaws) vs vehicle control animals” value [2] of the same molecule?
A: longer in time and that the forepaws reached higher levels

Q: And the “significantly less time in LEVEL 2 (10-15 cm) when compared to healthy control animals” value [2]?
A: this is not the case
